Source: patent EP4803520A1, “COMPOUND CONTAINING FUSED BICYCLIC RING, PHARMACEUTICAL COMPOSITION, AND USE THEREOF” (priority 2023, dated 2025)
pIC50: −log10 of the molar value.

Experiments:
MDA-MB-436 cells = assay: Assay on inhibitory activity for MDA-MB-436 cell proliferation (CCK-8); format: cell-based; conditions: 168 h of incubation, CCK-8, absorbance at 450 nm
Protocol: MDA-MB-436 cells in a good growth state were collected into a centrifuge tube, adjusted to a cell density of 2 × 10^4 cells/mL using a complete medium (DMEM high glucose + 10% FBS + 1× insulin-transferrin-selenium (ITS-G) + 16 µg/mL reduced glutathione), and seeded in a 96-well plate (100 µL/well), and the plate was incubated overnight in a cell incubator. Compounds were added using a pipettor, such that the final concentrations of the compounds were 400 nM-0.02 nM. The wells were set in duplicate, and a control well was set. After 168 h of incubation in the cell incubator, the assay reagent CCK-8 (manufacturer: Dojindo Laboratories, Beijing; 10 µL/well) was added. After 1.5 h of incubation in the cell incubator, the absorbance values were measured at 450 nm on a PerkinElmer Envision microplate reader. […] Inhibitory activity results for DA-MB-436 cell proliferation of compounds

PARP1 [1] = biological target: T1, PARP1 (Homo sapiens, UniProt P09874); assay: Assay on PARP1 protein activity (chemiluminescence assay kit)
Protocol: A chemiluminescence assay kit (BPS, Cat. No. 80551) was used. 50 µL of 1× histone was added to a 96-well plate and incubated overnight at 4 °C. Each well was washed 3 times with 200 µL of a PBST buffer (containing 0.05% Tween-20), and the liquid was removed from the plate. 200 µL of blocking buffer 3 was added, and the plate was blocked at room temperature for 60-90 min. The blocking solution was discarded, and the plate was washed 3 times with a PBST buffer, followed by the removal of the liquid from the plate. 25 µL of a master mix (2.5 µL of a 10× PARP buffer + 2.5 µL of a 10× biotinylated substrate assay mix + 5 µL of activated DNA (5×) + 15 µL of water) and 5 µL of a 1× PARP buffer were added to each well. Compounds were sprayed using a nanoliter pipettor in the compound groups. 20 µL of a 1× PARP buffer was added to the blank control group, and 20 µL of PARP 1 enzyme (2.4 ng/mL) was added to the other wells to initiate the reaction. The plate was incubated at room temperature for 1 h. 50 µL of streptavidin-HRP (diluted 1:50 in blocking buffer 3) was added to each well, and the plate was incubated at room temperature for 30 min. The plate was washed three times with PBST, and the liquid was removed from the plate. 50 µL of ELISA ECL substrate A and 50 µL of ELISA ECL substrate B were mixed on ice before use, and 100 µL were added to each well.

PARP1 [2] = biological target: T1, PARP1; assay: PARP1-Tracer activity assay (FP method); format: binding; parameters: purchased BPS 80551; conditions: ratio of PARP2 IC50 to PARP1 IC50, FP method
Protocol: The enzyme inhibition activity of the compounds against PARP1/2-Tracer was tested using the FP method. First, 100 nL of inhibitors with a final concentration of 1% DMSO were transferred to a 384-well reaction plate (Corning 4514) using Echo655. Then, 5 µL of a PARP1/2 (BPS, Cat. No. 80501/80502) enzyme solution was added to each well, followed by centrifugation at 1000 RPM for 1 min at room temperature, and the reaction was allowed to proceed for 10 min. Subsequently, 5 µL of a Tracer (ICE, Cat. No. 001315-009) solution was added to each well, followed by centrifugation at 1000 RPM for 1 min at room temperature, and the reaction was allowed to proceed for 60 min. PARP1/2 and Tracer were prepared in a buffer containing 50 mM Tris (pH 8.0), 10 mM MgCl2, 150 mM NaCl, and 0.001% Triox-100, with final concentrations of 5/10 nM and 2.5 nM, respectively. Finally, the FP signal was read using BMG (PHERAstar FSX), and the IC50 values and nonlinear regression curve fitting were obtained using GraphPad Prism software.

T1 sequence (P09874 whole entry): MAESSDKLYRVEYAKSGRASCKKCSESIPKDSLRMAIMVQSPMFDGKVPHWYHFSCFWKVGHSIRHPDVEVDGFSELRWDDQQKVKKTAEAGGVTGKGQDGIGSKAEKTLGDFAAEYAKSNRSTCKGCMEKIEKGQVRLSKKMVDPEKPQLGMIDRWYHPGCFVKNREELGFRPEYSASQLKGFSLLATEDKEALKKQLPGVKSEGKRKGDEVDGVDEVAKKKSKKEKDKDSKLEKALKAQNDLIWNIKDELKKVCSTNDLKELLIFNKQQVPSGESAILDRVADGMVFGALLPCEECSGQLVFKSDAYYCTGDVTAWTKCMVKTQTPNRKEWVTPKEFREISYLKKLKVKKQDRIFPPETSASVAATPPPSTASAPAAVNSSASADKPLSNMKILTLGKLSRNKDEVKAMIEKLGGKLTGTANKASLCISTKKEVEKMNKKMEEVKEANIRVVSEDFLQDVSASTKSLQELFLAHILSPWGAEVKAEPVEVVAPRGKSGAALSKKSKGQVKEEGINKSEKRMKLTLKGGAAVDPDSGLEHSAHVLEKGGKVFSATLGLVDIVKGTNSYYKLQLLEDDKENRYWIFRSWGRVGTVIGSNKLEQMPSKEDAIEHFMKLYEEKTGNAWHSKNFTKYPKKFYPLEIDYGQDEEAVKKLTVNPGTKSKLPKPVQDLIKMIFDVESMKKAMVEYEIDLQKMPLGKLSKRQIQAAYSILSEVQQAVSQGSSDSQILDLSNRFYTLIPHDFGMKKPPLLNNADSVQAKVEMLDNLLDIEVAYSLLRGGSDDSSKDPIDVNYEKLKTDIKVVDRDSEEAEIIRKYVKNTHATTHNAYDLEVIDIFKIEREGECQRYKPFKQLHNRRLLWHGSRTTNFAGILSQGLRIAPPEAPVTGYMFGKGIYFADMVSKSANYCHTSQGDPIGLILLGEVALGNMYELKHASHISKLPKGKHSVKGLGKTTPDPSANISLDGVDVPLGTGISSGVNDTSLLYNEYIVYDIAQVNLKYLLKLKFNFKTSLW

Structure (SMILES)	pIC50 (MDA-MB-436 cells; Homo sapiens, MDA-MB-436)	pIC50 (MDA-MB-436 cells)	also measured
CCc1cc2cc(F)c(CN3CC(N4Cc5cn(C(=O)NC)nc5C4)C3)cc2[nH]c1=O [Compound 18]	≥ 7.30		
CCc1cc2ccc(CN3CC(N4Cc5cn(C(=O)NC)nc5C4)C3)cc2[nH]c1=O [Compound 1]		≥ 7.30	
O=C(NC1CC1)n1cc2c(n1)CN(C1CN(Cc3ccc4cc(C5CC5)c(=O)[nH]c4c3)C1)C2 [Compound 11]		≥ 7.30	
CCc1cc2ncc(CN3CC(N4Cc5cn(C(=O)NC)nc5C4)C3)cc2[nH]c1=O [Compound 10]		≥ 7.30	
CNC(=O)c1nc2c(s1)CN(C1CN(Cc3ccc4cc(C5CC5)c(=O)[nH]c4c3)C1)C2 [Compound 31]	≥ 7.30		
CCc1cc2ncc(CN3CC(N4Cc5nc(C(=O)NC)sc5C4)C3)cc2[nH]c1=O [Compound 7]		≥ 7.30	
CNC(=O)n1cc2c(n1)CN(C1CN(Cc3ccc4c(c3)[nH]c(=O)n3cccc43)C1)C2 [Compound 34]	≥ 7.30		
CCc1cc2ccc(CN3CC(N4Cc5cn(C(=O)NC6CC6)nc5C4)C3)cc2[nH]c1=O [Compound 4]		≥ 7.30	
CNC(=O)n1cc2c(n1)CN(C1CN(Cc3ccc4cc(Cl)c(=O)[nH]c4c3)C1)C2 [Compound 26]	≥ 7.30		
CCc1cc2ccc(CN3CC(N4Cc5cn(C(=O)NC(C)C)nc5C4)C3)cc2[nH]c1=O [Compound 9]		≥ 7.30	
CNC(=O)n1cc2c(n1)CN(C1CN(Cc3ccc4cc(C)c(=O)[nH]c4c3)C1)C2 [Compound 22]	≥ 7.30		
CCc1cc2c(F)cc(CN3CC(N4Cc5cn(C(=O)NC6CC6)nc5C4)C3)cc2[nH]c1=O [Compound 20]	≥ 7.30		

Second part, led by results:

pIC50 (MDA-MB-436 cells; Homo sapiens, MDA-MB-436)	pIC50 (MDA-MB-436 cells)	Structure (SMILES)	also measured
≥ 7.30		CCc1cc2ccc(CN3C[C@H](N4Cc5cn(C(=O)NC)nc5C4)[C@@H]3C)cc2[nH]c1=O [Compound 41]	pIC50 (PARP1 [1]): > 8.00
≥ 7.30		CNC(=O)n1cc2c(n1)CN(C1CN(Cc3ccc4cc(C5CC5)c(=O)[nH]c4c3)[C@@H]1C)C2 (single isomer, unassigned) [Compound 40]	
≥ 7.30		CNC(=O)n1cc2c(n1)CN([C@H]1CN(Cc3ccc4cc(C5CC5)c(=O)[nH]c4c3)[C@H]1C)C2 [Compound 42]	pIC50 (PARP1 [1]): > 9.00
	≥ 7.30	CNC(=O)n1cc2c(n1)CN([C@@H]1CN(Cc3ccc4cc(C5CC5)c(=O)[nH]c4c3)[C@H]1C)C2 [Compound 43]	
≥ 7.30		CCc1nc2ccc(CN3C[C@H](N4Cc5cn(C(=O)NC)nc5C4)[C@@H]3C)cc2[nH]c1=O [Compound 45]	PARP2/PARP 1 selectivity (PARP1 [2]): >200 fold
≥ 7.30		CNC(=O)n1cc2c(n1)CN([C@H]1CN(Cc3ccc4c(C)c(C(F)(F)F)c(=O)[nH]c4c3)[C@H]1C)C2 [Compound 54]	pIC50 (PARP1 [1]): > 9.00
≥ 7.30		CCc1nc2ccc(CN3C[C@H](N4Cc5cn(C(=O)NC)nc5C4)[C@@H]3C)c(F)c2[nH]c1=O [Compound 51]	
≥ 7.30		CNC(=O)n1cc2c(n1)CN([C@H]1CN(Cc3ccc4cc(C(F)(F)F)c(=O)[nH]c4c3)[C@H]1C)C2 [Compound 36]	
